Assay: xn = mol fraction of the nth substance listed

Oc1ccccc1Cl + Nc1ccccc1
101 kPa
Conditions	viscosity [mPa·s]
293.15 K, x1 = 0.1176	5.78
293.15 K, x1 = 0.2278	7.74
293.15 K, x1 = 0.3271	9.6
293.15 K, x1 = 0.3874	10.56
293.15 K, x1 = 0.4366	11.24
293.15 K, x1 = 0.4885	11.66
293.15 K, x1 = 0.5271	11.76
293.15 K, x1 = 0.5756	11.48
293.15 K, x1 = 0.6117	10.96
293.15 K, x1 = 0.7174	9.04
293.15 K, x1 = 0.8625	6.3
298 K, x1 = 0.1032	4.945
298 K, x1 = 0.2004	6.157
298 K, x1 = 0.3011	7.228
298 K, x1 = 0.4069	8.07
298 K, x1 = 0.5008	8.81
298 K, x1 = 0.6002	8
298 K, x1 = 0.7016	6.99
298 K, x1 = 0.7852	5.942
298 K, x1 = 0.9025	4.443
303 K, x1 = 0.1032	4.142
303 K, x1 = 0.2004	5.008
303 K, x1 = 0.3011	5.792
303 K, x1 = 0.4069	6.329
303 K, x1 = 0.5008	6.859
303 K, x1 = 0.6002	6.232
303 K, x1 = 0.7016	5.602
303 K, x1 = 0.7852	4.74
303 K, x1 = 0.9025	3.702
303.15 K, x1 = 0.1176	4.05
303.15 K, x1 = 0.2278	5.06
303.15 K, x1 = 0.3271	5.93
303.15 K, x1 = 0.3874	6.39
303.15 K, x1 = 0.4366	6.72
303.15 K, x1 = 0.4885	6.93
303.15 K, x1 = 0.5271	6.95
303.15 K, x1 = 0.5756	6.86
303.15 K, x1 = 0.6117	6.7
303.15 K, x1 = 0.7174	5.8
303.15 K, x1 = 0.8625	4.31
308 K, x1 = 0.1032	3.556
308 K, x1 = 0.2004	4.265
308 K, x1 = 0.3011	4.728
308 K, x1 = 0.4069	4.979
308 K, x1 = 0.5008	5.417
308 K, x1 = 0.6002	4.922
308 K, x1 = 0.7016	4.511
308 K, x1 = 0.7852	3.826
308 K, x1 = 0.9025	3.108
313 K, x1 = 0.1032	3.11
313 K, x1 = 0.2004	3.638
313 K, x1 = 0.3011	3.9
313 K, x1 = 0.4069	4.024
313 K, x1 = 0.5008	4.382
313 K, x1 = 0.6002	3.966
313 K, x1 = 0.7016	3.75
313 K, x1 = 0.7852	3.283
313 K, x1 = 0.9025	2.744
313.15 K, x1 = 0.1176	2.945
313.15 K, x1 = 0.2278	3.54
313.15 K, x1 = 0.3271	3.99
313.15 K, x1 = 0.3874	4.2
313.15 K, x1 = 0.4366	4.33
313.15 K, x1 = 0.4885	4.39
313.15 K, x1 = 0.5271	4.4
313.15 K, x1 = 0.5756	4.34
313.15 K, x1 = 0.6117	4.24
313.15 K, x1 = 0.7174	3.79
313.15 K, x1 = 0.8625	3.01
318 K, x1 = 0.1032	2.671
318 K, x1 = 0.2004	3.036
318 K, x1 = 0.3011	3.241
318 K, x1 = 0.4069	3.322
318 K, x1 = 0.5008	3.611
318 K, x1 = 0.6002	3.27
318 K, x1 = 0.7016	3.137
318 K, x1 = 0.7852	2.853
318 K, x1 = 0.9025	2.446

CCC(CC)CO + CO
298.15 K, 101.33 kPa
Conditions	viscosity [mPa·s]
x2 = 0.1241	4.806
x2 = 0.2054	4.143
x2 = 0.3133	3.38
x2 = 0.4534	2.454
x2 = 0.5051	2.214
x2 = 0.6004	1.744
x2 = 0.7073	1.33
x2 = 0.8019	1.041
x2 = 0.9015	0.7598

From the CheMixHub viscosity set
